Test results published in patent US20110076331A1, “Use of Deuterium Oxide as an Elastase Inhibitor” (priority 2008, published 2011).

Key:
[1] = target: T1, human neutrophil elastase (HNE) (Homo sapiens, UniProt P08246); assay: Inhibition of AAPV conversion by human neutrophil elastase (photometric, 405 nm); format: biochemical
T1 sequence (P08246 30-267): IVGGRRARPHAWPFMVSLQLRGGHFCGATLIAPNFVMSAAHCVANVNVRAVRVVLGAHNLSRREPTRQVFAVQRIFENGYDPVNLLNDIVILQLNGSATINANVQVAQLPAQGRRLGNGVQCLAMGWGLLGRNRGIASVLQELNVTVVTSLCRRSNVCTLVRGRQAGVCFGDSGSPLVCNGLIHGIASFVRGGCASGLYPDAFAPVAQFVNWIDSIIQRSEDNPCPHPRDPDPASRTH
Description: Measurement of AAPV conversation occurred spectrophotometrically at a wavelength of 405 nm.
HNE was incubated together with the synthetic substrate N-methoxysuccinyl-Ala-Ala-Pro-Val-p-nitroanilide (AAPV). Conversion of AAPV was then determined photometrically at 405 nm. The following incubation scheme was used: • Sample 1) HNE IN D2O with AAPV in D2O; • Sample 2) HNE in D2O with AAPV in H2O; • Sample 3) HNE in H2O with AAPV in D2O; • Control: HNE in H2O with AAPV in H2O.
The enzyme and substrate were each incubated for 60 minutes with H2O or D2O before HNE and AAPV were added together. The amount of D2O in the experiments was varied over a range from 10 to 100% in order to detect the dependence of inhibition of AAPV conversion by HNE.
A half-maximum effective dose was determined at a D2O content of about 40 vol %. At 100% D2O in the mixture an inhibition of AAPV conversion of about 70% was achieved.

[2] = system: subjects with colds accompanied by severe nasal obstruction; assay: Decongestion of nasal mucosa (rhinomanometry); format: in vivo, human; details: one pump spray of D2O saline in each nostril
Description: Physiological saline was prepared from D2O (experiment group) and H2O (control group) and filled into a pump spray container as is ordinarily used to release nasal spray. Subjects with colds accompanied by severe nasal obstruction were divided into two groups of eight subjects each. Air flow through the nose was determined by rhinomanometry (initial value) in each subject right before treatment (after thorough removal of secretions). The subjects of the experimental group then each received one pump spray of D2O saline in each nostril, while the subjects of the control group received H2O saline instead in the same amount. Thirty and 60 minutes after application air flow was determined in each subject by rhinomanometry and the percent change of air flow relative to the initial value was calculated. From these values an average was formed for the verum and control groups (average percentage change in air flow <Lf%>). A positive value of <Lf%> indicates an increase, a negative value a reduction in air flow. For the experimental group after 30 minutes a value of <Lf%>=20±5% and after 60 minutes <Lf%>=90±10% was obtained. The control group gave <Lf%>=10±5% after 30 minutes and <Lf%>=5±5% after 60 minutes.

[3] = system: subjects with the minor form of RBA; assay: Gel treatment of recurring benign aphthosis (RBA); format: in vivo, human; details: D2O gel (example 1) three times a day; three days after first application
Description: Eight volunteer subjects with the minor form of RBA (diameter of round to oval erosion is 3-5 mm) at locations of the oral mucosa readily accessible to optical inspection (and especially cheek mucosa and mucosa in the lower jaw area) were randomized into two groups of four subjects each (experimental group and control group) and the size (diameter) of the aphthae (initial value) was determined precisely at 0.5 mm optically. For size determination only the gray-covered eroded surface was considered and the red edge area was not considered. The first aphthosis symptoms of the subjects in both groups were at least 2 days old and at most 4 days old. The experimental group received a D2O gel prepared according to example 1 three times a day applied with an appropriate applicator to the erosion (aphtha). It was ensured that the applied gel covered the entire surface of the aphtha plus a 2-3 mm wide edge and was allowed to act at least for 5 minutes. The control group was treated similarly with an identical dose and application of an H2O prepared according to example 1. […] For the experimental group an average reduction in diameter relative to the initial value of 30±10% can be detected and in the control group an average increase in aphthae diameter by 15±10% was observed.

## [2H]O[2H] [D2O, deuterium oxide]
[1]; D2O amount in the mixture of HNE and AAPV, 60 minutes preincubation
  half-maximum effective dose (D2O content) for inhibition of AAPV conversion: about 40 vol %
[1]; at 100% D2O in the mixture
  inhibition of AAPV conversion: about 70%
[2]; after 30 minutes
  average percentage change in air flow <Lf%>: 20±5%
[2]; after 60 minutes
  average percentage change in air flow <Lf%>: 90±10%
[3]
  average reduction in aphthae diameter relative to the initial value: 30±10%
